The experiment deals with T1, IDO1 (Homo sapiens, UniProt P14902).
T1 construct: Recombinant full-length IDO1 (Seegers, N., et al.) and all other assay components were diluted in IDO1 reaction buffer; made in house
As to the kind of experiment: Biochemical IDO1 assay (NFK GreenScreen). To be noted: for pIC50: NFK GreenScreen, 25 nM IDO1, 100 μM L-tryptophan, read-out: IC50, inhibitory potency on IDO1; for relative activity of the separated isomers: stated in the synthesis examples, assay not named. The procedure:
Inhibition of IDO1 activity can be measured by determining the enzymatic conversion of L-tryptophan into N-formylkynurenine (NFK) in a reaction mixture containing IDO1 and test compound. The formation of NFK can be detected directly by, for instance, high-performance liquid chromatography (HPLC) methods, or by intrinsic fluorescence.
Compounds were serially diluted in dimethylsulfoxide (DMSO) and finally in IDO1 reaction buffer, consisting of 50 mM NaH2PO4, pH7.0, supplemented with 0.05% Tween-20 (cat. No. P7949; Sigma Aldrich) and 1% glycerol. Recombinant full-length IDO1 (Seegers, N., et al.) and all other assay components were diluted in IDO1 reaction buffer. […] Subsequently, 10 μl of 0.4 mM of the substrate L-tryptophan was added, i.e., the final concentration of L-tryptophan was 100 μM. The DMSO concentration in the assay was 0.3%. […] Incubation was continued for 60 min at room temperature. Then, 10 μl of NFK Green™ (NTRC, Oss, The Netherlands) was added, the plate was sealed, and the reaction was developed for 3 hours at 37° C. To determine the production of N-formyl kynurenine (NFK), the seal was removed and fluorescence was read on an EnVision multimode reader (Perkin Elmer, Waltham, Mass., USA). IC50 were calculated using XLfit™ software (ID Business Solutions, Ltd., Surrey, U.K.).

This is an account of results in US11053230B2, “3-hydroxy-imidazolidin-4-one compounds as inhibitors of indoleamine 2,3-dioxygenase” (Netherlands Translational Research Center B.V., priority 2017, dated 2021).

Structures are written as SMILES. pIC50: −log10 of the molar value. Values joined by “and” are separate entries in the source; they are usually repeats but may differ in a detail not shown here. Equal values may be shown once. Bounds are passed on as bounds.

T1 sequence (P14902 whole entry): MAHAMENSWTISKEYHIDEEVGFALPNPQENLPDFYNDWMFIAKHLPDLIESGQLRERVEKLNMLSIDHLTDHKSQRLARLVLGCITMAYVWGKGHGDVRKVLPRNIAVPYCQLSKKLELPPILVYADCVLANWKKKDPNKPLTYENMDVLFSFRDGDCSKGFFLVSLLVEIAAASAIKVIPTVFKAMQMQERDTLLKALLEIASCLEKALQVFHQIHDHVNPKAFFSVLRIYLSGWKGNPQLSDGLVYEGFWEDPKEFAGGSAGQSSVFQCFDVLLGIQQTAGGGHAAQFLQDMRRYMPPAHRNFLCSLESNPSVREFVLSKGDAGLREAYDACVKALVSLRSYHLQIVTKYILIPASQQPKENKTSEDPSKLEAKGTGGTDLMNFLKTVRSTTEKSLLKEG

As usually defined, the pIC50 is −log10 of the IC50, conventionally taken in molar units. In the case of `O=C1CN(C(=O)c2c(F)cccc2F)C(c2ccc(Br)s2)N1O` (single isomer, unassigned) [Example 49a, 2-(5-Bromo-2-thienyl)-1-(2,6-difluorobenzoyl)-3-hydroxy-imidazolidin-4-one], the pIC50 was ≥ 5.30 and 5.30 to 6.00; the “relative activity of the separated isomers” value (“relative activity” for short) is listed as “less active isomer”.
Turning to `O=C1CN(C(=O)c2c(F)cccc2F)C(c2csc(Br)c2)N1O` (single isomer, unassigned) [Example 46a, 2-(5-Bromo-3-thienyl)-1-(2,6-difluorobenzoyl)-3-hydroxy-imidazolidin-4-one], the pIC50 is ≥ 5.30 and 5.30 to 6.00; the “relative activity” value was “less active isomer”.
As for `O=C1CN(C(=O)c2c(F)ccc(Br)c2F)C(c2cc(Br)cs2)N1O` (stereo not shown) [Example 74, 1-(3-Bromo-2,6-difluoro-benzoyl)-2-(4-bromo-2-thienyl)-3-hydroxy-imidazolidin-4-one], the pIC50 was no less than 6.00.
Still for that read-out and setting: the result for `C#Cc1ccc(F)c(C(=O)N2CC(=O)N(O)C2c2cc(Br)cs2)c1F` (stereo not shown) [Example 127, 2-(4-Bromo-2-thienyl)-1-(3-ethynyl-2,6-difluoro-benzoyl)-3-hydroxy-imidazolidin-4-one] reads no less than 6.00; that for `O=C1CN(C(=O)c2c(F)cccc2Cl)C(c2ccc(Br)s2)N1O` (stereo not shown) [Example 3, 2-(5-Bromo-2-thienyl)-1-(2-chloro-6-fluoro-benzoyl)-3-hydroxy-imidazolidin-4-one], ≥ 5.30 and 5.30 to 6.00.
As to `CN(C)c1cc(F)c(C(=O)N2CC(=O)N(O)C2c2cc(Br)cs2)c(F)c1` (stereo not shown) [Example 97, 2-(4-Bromo-2-thienyl)-1-[4-(dimethylamino)-2,6-difluoro-benzoyl]-3-hydroxy-imidazolidin-4-one], the pIC50 is ≥ 5.30 and 5.30 to 6.00.
Turning to `CC(C)CCc1cc(F)c(C(=O)N2CC(=O)N(O)C2c2cc(Br)cs2)c(F)c1` (stereo not shown) [Example 95, 2-(4-Bromo-2-thienyl)-1-(2,6-difluoro-4-isopentyl-benzoyl)-3-hydroxy-imidazolidin-4-one], the pIC50 is ≥ 5.30 and 5.30 to 6.00.
On to `O=C1CN(C(=O)c2c(F)ccc(-c3cccs3)c2F)C(c2cc(Br)cs2)N1O` (stereo not shown) [Example 131, 2-(4-Bromo-2-thienyl)-1-[2,6-difluoro-3-(2-thienyl)benzoyl]-3-hydroxy-imidazolidin-4-one], for which the pIC50 was no less than 6.00.
In the case of `O=C1CN(C(=O)c2c(F)cc(C#CC3CCCCC3)cc2F)C(c2cc(Br)cs2)N1O` (stereo not shown) [Example 78, 2-(4-Bromo-2-thienyl)-1-[4-(2-cyclohexylethynyl)-2,6-difluoro-benzoyl]-3-hydroxy-imidazolidin-4-one], the pIC50 was no less than 6.00.
As for `O=C1CN(C(=O)c2c(F)cccc2F)C(c2cc(Br)co2)N1O` (stereo not shown) [Example 23, 2-(4-Bromo-2-furyl)-1-(2,6-difluorobenzoyl)-3-hydroxy-imidazolidin-4-one], the pIC50 was ≥ 5.30 and 5.30 to 6.00.
For `[2H]C([2H])([2H])c1sc(C2N(O)C(=O)CN2C(=O)c2c(F)cccc2F)cc1Br` (stereo not shown) [Example 114, 2-[4-Bromo-5-(trideuteriomethyl)-2-thienyl]-1-(2,6-difluorobenzoyl)-3-hydroxy-imidazolidin-4-one], the pIC50 is no less than 6.00.
For `O=C1CN(C(=O)c2cccc(Cl)c2Cl)C(c2cc(Br)cs2)N1O` (stereo not shown) [Example 69, 2-(4-Bromo-2-thienyl)-1-(2,3-dichlorobenzoyl)-3-hydroxy-imidazolidin-4-one], the pIC50 is no less than 6.00.
Consider `O=C1CN(C(=O)c2ccccc2Cl)C(c2cc(Br)cs2)N1O` (stereo not shown) [Example 55, 2-(4-Bromo-2-thienyl)-1-(2-chlorobenzoyl)-3-hydroxy-imidazolidin-4-one], for which the pIC50 is no less than 6.00.
On the same count and under the same terms, the result for `C#Cc1csc(C2N(O)C(=O)CN2C(=O)c2c(F)cccc2F)c1` (stereo not shown) [Example 1, 1-(2,6-Difluorobenzoyl)-2-(4-ethynyl-2-thienyl)-3-hydroxy-imidazolidin-4-one] reads no less than 6.00.
Consider `O=C1CN(C(=O)c2c(F)cccc2F)C(c2csc(Br)c2)N1O` (single isomer, unassigned) [Example 46b, 2-(5-Bromo-3-thienyl)-1-(2,6-difluorobenzoyl)-3-hydroxy-imidazolidin-4-one], for which the negative logarithm of the IC50 (pIC50) is no less than 6.00 and the “relative activity” value is on record as “most active isomer”.
Turning to `Cc1ccc(F)c(C(=O)N2CC(=O)N(O)C2c2cc(Br)cs2)c1F` (stereo not shown) [Example 77, 2-(4-Bromo-2-thienyl)-1-(2,6-difluoro-3-methyl-benzoyl)-3-hydroxy-imidazolidin-4-one], the pIC50 was no less than 6.00.
For the molecule `O=C1CN(C(=O)c2c(F)cc(-c3cccs3)cc2F)C(c2cc(Br)cs2)N1O` (stereo not shown) [Example 87, 2-(4-Bromo-2-thienyl)-1-[2,6-difluoro-4-(2-thienyl)benzoyl]-3-hydroxy-imidazolidin-4-one], the pIC50 was no less than 6.00.
Regarding `O=C1CN(C(=O)c2c(F)cccc2F)C(c2nc(Br)cs2)N1O` (stereo not shown) [Example 22, 2-(4-Bromothiazol-2-yl)-1-(2,6-difluorobenzoyl)-3-hydroxy-imidazolidin-4-one], the pIC50 was ≥ 5.30 and 5.30 to 6.00.
On to `NS(=O)(=O)NC1(C#Cc2cc(F)c(C(=O)N3CC(=O)N(O)C3c3cc(Br)cs3)c(F)c2)CC1` (stereo not shown) [Example 90, 2-(4-Bromo-2-thienyl)-1-[2,6-difluoro-4-[2-[1-(sulfamoylamino)cyclopropyl]ethynyl]benzoyl]-3-hydroxy-4-oxo-imidazolidine], for which the pIC50 is no less than 6.00.
With `COc1ccc(F)c(C(=O)N2CC(=O)N(O)C2c2cc(Br)cs2)c1F` (stereo not shown) [Example 75, 2-(4-Bromo-2-thienyl)-1-(2,6-difluoro-3-methoxy-benzoyl)-3-hydroxy-imidazolidin-4-one], the pIC50 is no less than 6.00.
Turning to `O=C1CN(C(=O)c2ccc(Oc3ccccc3)cc2)C(c2cc(Br)cs2)N1O` (stereo not shown) [Example 54, 2-(4-Bromo-2-thienyl)-3-hydroxy-1-(4-phenoxybenzoyl)imidazolidin-4-one], the pIC50 is ≥ 5.30 and 5.30 to 6.00.
Turning to `CSc1ccc(C2N(O)C(=O)CN2C(=O)c2ccccc2F)s1` (stereo not shown) [Example 13, 1-(2-Fluorobenzoyl)-3-hydroxy-2-(5-methylsulfanyl-2-thienyl)imidazolidin-4-one], the negative logarithm of the IC50 (pIC50) was ≥ 5.30 and 5.30 to 6.00.
Consider `O=C1CN(C(=O)c2c(F)cccc2F)C(c2cc([N+](=O)[O-])cs2)N1O` (stereo not shown) [Example 21, 1-(2,6-Difluorobenzoyl)-3-hydroxy-2-(4-nitro-2-thienyl)imidazolidin-4-one], for which the negative logarithm of the IC50 (pIC50) was no less than 6.00.
For `O=C1CN(C(=O)c2c(F)ccc(C(F)(F)F)c2F)C(c2csc(Br)c2)N1O` (stereo not shown) [Example 103, 2-(5-Bromo-3-thienyl)-1-[2,6-difluoro-3-(trifluoromethyl)benzoyl]-3-hydroxy-imidazolidin-4-one], the negative-log IC50 (pIC50) is no less than 6.00.
Take `O=C1CN(Cc2ccccc2F)C(c2ccc(Br)s2)N1O` (stereo not shown) [Example 41, 2-(5-Bromo-2-thienyl)-1-[(2-fluorophenyl)methyl]-3-hydroxy-imidazolidin-4-one]: the pIC50 is no less than 6.00.
`Nc1ccc(F)c(C(=O)N2CC(=O)N(O)C2c2cc(Br)cs2)c1F` (stereo not shown) [Example 105, 1-(3-Amino-2,6-difluoro-benzoyl)-2-(4-bromo-2-thienyl)-3-hydroxy-imidazolidin-4-one]: the pIC50 was no less than 6.00.
In the case of `Cn1cc(-c2cc(F)c(C(=O)N3CC(=O)N(O)C3c3cc(Br)cs3)c(F)c2)cn1` (stereo not shown) [Example 86, 2-(4-Bromo-2-thienyl)-1-[2,6-difluoro-4-(1-methylpyrazol-4-yl)benzoyl]-3-hydroxy-imidazolidin-4-one], the pIC50 was no less than 6.00.
The same measure, in the same setting: the value for `O=C1CN(Cc2ccccc2F)C(c2csc(Br)c2)N1O` (stereo not shown) [Example 42, 2-(5-Bromo-3-thienyl)-1-[(2-fluorophenyl)methyl]-3-hydroxy-imidazolidin-4-one] was no less than 6.00.
With `O=C1CN(C(=O)c2c(F)cc(C#CC3CC3)cc2F)C(c2cc(Br)cs2)N1O` (stereo not shown) [Example 39, 2-(4-Bromo-2-thienyl)-1-[4-(2-cyclopropylethynyl)-2,6-difluoro-benzoyl]-3-hydroxy-imidazolidin-4-one], the pIC50 is no less than 6.00.
As for `O=C1CN(C(=O)c2ccccc2)C(c2cc(Br)cs2)N1O` (stereo not shown) [Example 12, 1-Benzoyl-2-(4-bromo-2-thienyl)-3-hydroxy-imidazolidin-4-one], the pIC50 is ≥ 5.30 and 5.30 to 6.00.
As to `Cn1cc(-c2ccc(F)c(C(=O)N3CC(=O)N(O)C3c3csc(Br)c3)c2F)cn1` (stereo not shown) [Example 124, 2-(5-Bromo-3-thienyl)-1-[2,6-difluoro-3-(1-methylpyrazol-4-yl)benzoyl]-3-hydroxy-imidazolidin-4-one], the pIC50 was no less than 6.00.
`C=Cc1cc(F)c(C(=O)N2CC(=O)N(O)C2c2cc(Br)cs2)c(F)c1` (stereo not shown) [Example 83, 2-(4-Bromo-2-thienyl)-1-(2,6-difluoro-4-vinyl-benzoyl)-3-hydroxy-imidazolidin-4-one]: the pIC50 was no less than 6.00.
`N#Cc1csc(C2N(O)C(=O)CN2C(=O)c2c(F)cccc2F)c1` (stereo not shown) [Example 30, 5-[1-(2,6-Difluorobenzoyl)-3-hydroxy-4-oxo-imidazolidin-2-yl]thiophene-3-carbonitrile]: the pIC50 was ≥ 5.30 and 5.30 to 6.00.
In the case of `CSc1ccc(C2N(O)C(=O)CN2C(=O)c2c(F)cccc2F)s1` (stereo not shown) [Example 14, 1-(2,6-Difluorobenzoyl)-3-hydroxy-2-(5-methylsulfanyl-2-thienyl)imidazolidin-4-one], the pIC50 was ≥ 5.30 and 5.30 to 6.00.
